According to patent publication US20090176817A1, “Method of Treatment of Diarrhea-Predominant Irritable Bowel Syndrome in a Subject” (priority 2005, published 2009):

Tests used:
clinical [1] = details: human, in vivo, po
Procedure: Two randomized, double-blind, placebo controlled, rising dose, crossover studies evaluated the single-dose pharmacokinetics of oral cilansetron over a 4 mg to 64 mg dose range. In one study, 24 male subjects (aged 21-36 years) received, at intervals of […], single oral doses of 4, 8, and 16 mg cilansetron in ascending order and a randomized placebo. In the other study, 24 male subjects received, at intervals of ≧1 week, single oral doses of 16, 32, and 64 mg cilansetron in ascending order and a randomized placebo. All doses were administered under fasted conditions. […] Renal excretion of cilansetron was negligible across all doses, with undetectable or very low amounts (<1% of the dose) excreted unchanged in urine.
Data for the evaluation of dose proportionality of oral cilansetron is available from three studies which have evaluated the pharmacokinetics of single doses over a 2 mg to 64 mg dose range. Two randomized, double-blind, placebo controlled, rising dose, crossover studies, in 24 male subjects each, evaluated the single dose pharmacokinetics of oral cilansetron (capsules) over a 4-16 mg and 16-64 mg dose range, respectively. In each study, subjects received, at intervals of ≧1 week, single oral doses of cilansetron in ascending order and a randomized placebo. All doses were administered under fasted conditions. A third open-label, randomized, parallel-group study in 36 male and female subjects, evaluated the single dose pharmacokinetics of a cilansetron 2 mg tablet administered under fed conditions. FIG. 16 to FIG. 19 present box plots of cilansetron AUC(0-inf) and Cmax from these three studies (males only), and corresponding dose-normalized values (normalized to a 1 mg dose). […] Table 2.7.2.3.14 presents descriptive statistics of cilansetron dose-normalized AUC and Cmax in these studies, and the results of statistical comparisons between doses.

clinical [2] = type: in vitro ADME; details: male, human, plasma; 8 mg oral/IV, 30, 45, 120 minutes; read-out: Fraction bound
Procedure: Plasma protein binding was also measured in blood samples collected at 30, 45, and 120 minutes after dosing in a single-dose, crossover study in which cilansetron 8 mg was administered orally (solution and capsule) and intravenously to 18 male subjects. In samples where total and/or free concentrations were measurable, fraction bound was about 96-98%.

[3] = system: diarrhea-predominant IBS subjects; experiment: Study S241.3.009: safety; type: in vivo, human; design: Incidence of bilirubin increase: dose or concentration left out as unconfirmed; details: for Constipation: human, 26 weeks
Source text: The primary efficacy parameter was the overall response rate for IBS symptoms, based on the weekly question concerning adequate relief of IBS symptoms (abdominal pain/discomfort, abnormal bowel habits) over the 26 weeks period. A responder was a subject who responded “yes” at least 50% of the time during his/her treatment period, with minimum treatment duration of four weeks. The two main secondary efficacy parameters were overall responder rate based on the weekly question on adequate relief of abdominal pain/discomfort and abnormal bowel habits during the 26-week treatment period. The onset of action of cilansetron was also examined using daily diary data (stool frequency, and ratings of urgency and severity) during the initial 8 weeks of trial participation. An additional key secondary efficacy parameter was the number of months (one month equals four weeks) up to six months (24-weeks) that a subject was a responder for IBS symptoms, where a responder was defined as a subject who answered the weekly question with “yes” at least twice for that month. The responder rate for the weekly diary questions on adequate relief at each month and all months, the adequate relief rate, the number of subjects with adequate relief by week, daily diary questions, IBS-QOL scores, and the interruption of activities were also assessed. Safety was evaluated by physical examination, ECG, vital signs, laboratory evaluations, concomitant medications, and AEs.

SMILES: Cc1nccn1C[C@H]1CCc2c(c3cccc4c3n2CCC4)C1=O [Cilansetron, (R)-(−)-4,5,6,8,9,10-hexahydro-10-[(2-methyl-1H-imidazol-1-yl)methyl]-11H-pyrido-[3,2,1-jk]-carbazol-11-one]
- CL/F (clinical [1]; 32 mg): 2487 (79) mL/min
- CL/F (clinical [1]; 64 mg): 1910 (60) mL/min
- DN-AUC(0-inf) ratio 32 mg/16 mg (clinical [1]; male): 127%
- DN-AUC(0-inf) ratio 64 mg/16 mg (clinical [1]; male): 158%
- DN-AUC(0-inf) ratio 64 mg/32 mg (clinical [1]; male): 125%
- DN-AUC(0-last) ratio 32 mg/16 mg (clinical [1]; male): 132%
- DN-AUC(0-last) ratio 64 mg/16 mg (clinical [1]; male): 168%
- DN-AUC(0-last) ratio 64 mg/32 mg (clinical [1]; male): 127%
- DN-Cmax ratio 32 mg/16 mg (clinical [1]; male): 127%
- DN-Cmax ratio 64 mg/16 mg (clinical [1]; male): 164%
- DN-Cmax ratio 64 mg/32 mg (clinical [1]; male): 129%
- CL renal (clinical [1]; male, 16 mg): 3.39 mL/min
- Tmax (clinical [1]; male, 16 mg): 1 h
- AUC(0-inf) (clinical [1]; male, 32 mg): 330 ng·h/mL
- AUC(0-t) (clinical [1]; male, 32 mg): 324 ng·h/mL
- CL renal (clinical [1]; male, 32 mg): 5 mL/min
- Cmax (clinical [1]; male, 32 mg): 143 ng/mL
- Tmax (clinical [1]; male, 32 mg): 1 h
- Vd/F (clinical [1]; male, 32 mg): 269 L
- half-life (clinical [1]; male, 32 mg): 1.28 h
- AUC(0-inf) (clinical [1]; male, 64 mg): 813 ng·h/mL
- AUC(0-t) (clinical [1]; male, 64 mg): 807 ng·h/mL
- CL renal (clinical [1]; male, 64 mg): 4.5 mL/min
- Cmax (clinical [1]; male, 64 mg): 349 ng/mL
- Tmax (clinical [1]; male, 64 mg): 1 h
- Vd/F (clinical [1]; male, 64 mg): 204 L
- half-life (clinical [1]; male, 64 mg): 1.3 h
- fraction unbound (clinical [2]): 0.02 to 0.04
- Number of subjects who died ([3]; 2 mg TID, 401 randomized, S241.3.009): 0 n (%)
- Constipation ([3]; female, in vivo): 17%
- Abdominal pain aggravated ([3]; in vivo): five
- Incidence of bilirubin increase ([3]; in vivo): 8%
- Rectal hemorrhage ([3]; in vivo): three
- Suspected ischemic colitis ([3]; in vivo): three
- Constipation ([3]; male, in vivo): 7%
